Values joined by “and” are separate entries in the source; they are usually repeats but may differ in a detail not shown here. Equal entries are not always repeated. “Also recorded” adds a separate entry of the source.
Legend:
GNS166 cells [1] = assay: Cell cycle analysis by flow cytometry; type: cell-based; settings: 5 μM
Description: Cells were harvested using accutase and washed with PBS. Then, 1·10^6 cells were fixed with 70% cold ethanol at −20 °C for at least 24 h, and incubated with 0.5% Triton X-100 and 25 µg/mL RNase A in PBS for 30 minutes at room temperature. Then, DNA was stained with 25 ng/mL propidium iodide for 15 minutes and samples were analyzed using a CytoFLEX flow cytometer (Beckman Coulter Co., Brea, CA, USA).

H1299 lung cancer cells = assay: MTT cell viability, H1299; type: cell-based; settings: Homo sapiens, NCI-H1299; MSM 0–10 μM
Description: (§1) Cells were seeded at a density of 1.5 × 10^3 cells/well (conventional cell lines) or 5 × 10^3 cells/well (GNS and NHA) in 96-well plates and incubated overnight. Cells were then treated with increasing concentrations of MSMs. After 72 h, cells were incubated for 3.5 h with MTT, after which absorbance at 570 nm was measured. IC50 values were calculated using GraphPad Prism software.

U87-MG cells [2] = assay: MTT cell viability, U87-MG; type: cell-based; settings: Homo sapiens, U-87 MG, 72 h
Description: as §1

[3] = system: MKN45 gastric cancer cells; assay: MTT cell viability, MKN45; type: cell-based; settings: Homo sapiens, MKN-45; MSM 0–10 μM
Description: as §1

[4] = system: RWP1 pancreatic cancer cells; assay: MTT cell viability, RWP1; type: cell-based; settings: MSM 0–10 μM
Description: as §1

[5] = system: Normal Human Astrocytes (NHAs); assay: MTT cell viability, normal human astrocytes; type: cell-based; settings: Astrocyte, MSM 0–100 μM, 72 h, read-out: IC50 in NHA
Description: as §1

In vivo toxicity assay = settings: intraperitoneal, 15 mg/kg
Description: Briefly, 15 mg/kg of MTP150 or vehicle (DMSO) was administered intraperitoneally to athymic nude-Foxn1^nu mice on a 5-days-on, 2-days-off schedule. Body weight was monitored to assess MSM potential toxicity. At the end-point, macroscopic analysis of the different organs was carried out.

recombinant hMAO-B = biological target: T1, recombinant hMAO-B (Homo sapiens, UniProt P27338); assay: MAO-B inhibition assay; type: biochemical; settings: 30 min preincubation, 37 °C
T1 sequence (P27338 1-520): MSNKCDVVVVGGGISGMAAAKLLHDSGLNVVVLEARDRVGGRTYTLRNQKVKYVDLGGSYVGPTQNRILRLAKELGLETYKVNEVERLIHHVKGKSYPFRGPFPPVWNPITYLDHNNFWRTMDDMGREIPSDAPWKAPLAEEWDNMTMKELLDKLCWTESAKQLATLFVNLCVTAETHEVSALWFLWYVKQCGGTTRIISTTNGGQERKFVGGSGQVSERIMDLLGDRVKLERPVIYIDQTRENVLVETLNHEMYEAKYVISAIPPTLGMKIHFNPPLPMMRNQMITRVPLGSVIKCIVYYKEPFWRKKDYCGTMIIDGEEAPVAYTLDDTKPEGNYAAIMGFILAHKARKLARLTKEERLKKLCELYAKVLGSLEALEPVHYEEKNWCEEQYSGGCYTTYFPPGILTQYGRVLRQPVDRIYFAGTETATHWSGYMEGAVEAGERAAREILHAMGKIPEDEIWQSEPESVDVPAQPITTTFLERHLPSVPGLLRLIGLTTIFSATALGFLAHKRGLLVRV
Description: Subsequently, 200 U/mL horseradish peroxidase, 20 mM Ampliflu Red and 100 mM tyramine hydrochloride (Sigma-Aldrich) were added, and absorbance was measured at 570 nm every 5 min for 30 min. The inhibition percentage was calculated from these absorbance values.

[6] = system: MKN45, RWP1 and H1299 cancer cells; assay: MTT cell viability, summary over gastric, pancreatic and lung cancer cells; type: cell-based; settings: range over the three cell lines; read-out: IC50 range across MKN45, RWP1 and H1299
Description: as §1

U87-MG cells [7] = assay: Western blot of acetylated α-tubulin and acetylated H3, U87-MG; type: cell-based; settings: 0.5, 1 and 10 µM
Description: (§2) Sodium dodecyl sulfate-polyacrylamide gel electrophoresis was performed. Primary antibodies against HDAC1 (Abcam, Waltham, MA, USA) and HDAC6 (Cell Signaling, Danvers, MA, USA), along with their downstream targets, acetylated H3 (Cell Signaling) and acetylated α-tubulin (Abcam), were used. β-actin (Sigma-Aldrich) served as endogenous control. Secondary antibodies conjugated to horseradish peroxidase (anti-rabbit or anti-mouse; Cell Signaling) were applied. Proteins were detected using the iBright imaging system and either NOVEX ECL Chemi Substrate or SuperSignal West Femto Maximum Sensitivity Substrate (ThermoFisher, Waltham, MA, USA).

U251-MG cells [8] = assay: Immunofluorescence proliferation / apoptosis, U251-MG; type: cell-based; settings: dose-dependent
Description: (§3) For immunofluorescence assays, cells were seeded at a density of 2 × 10^4 cells/well in 8-well immunofluorescence chambers (LabTek Thermo, Waltham, MA, USA) and incubated overnight. Following 48 h of treatment, cells were fixed with 4% PFA. Primary antibodies against phospho-Histone H3 (p-H3, Abcam) and Caspase 3 (R&D Systems, Minneapolis, MN, USA) and secondary antibodies Alexa Fluor anti-mouse and anti-rabbit (Invitrogen, Carlsbad, CA, USA) were used. Nuclei were stained with DAPI (Sigma-Aldrich). Images were acquired using an Axio Observer 7 epifluorescence microscope, and quantification was performed with Qupath software version 0.6.0.

[9] = Cell viability (MTT) of TMZ and MTP150 alone and combined; type: cell-based; settings: 250 µM TMZ, 0.5 µM MTP150, 72 h
Description: as §1

BChE = BChE (Homo sapiens, UniProt P06276); assay: BChE inhibition, Ellman's colorimetric method
Sequence of BChE (P06276 29-602, species assumed): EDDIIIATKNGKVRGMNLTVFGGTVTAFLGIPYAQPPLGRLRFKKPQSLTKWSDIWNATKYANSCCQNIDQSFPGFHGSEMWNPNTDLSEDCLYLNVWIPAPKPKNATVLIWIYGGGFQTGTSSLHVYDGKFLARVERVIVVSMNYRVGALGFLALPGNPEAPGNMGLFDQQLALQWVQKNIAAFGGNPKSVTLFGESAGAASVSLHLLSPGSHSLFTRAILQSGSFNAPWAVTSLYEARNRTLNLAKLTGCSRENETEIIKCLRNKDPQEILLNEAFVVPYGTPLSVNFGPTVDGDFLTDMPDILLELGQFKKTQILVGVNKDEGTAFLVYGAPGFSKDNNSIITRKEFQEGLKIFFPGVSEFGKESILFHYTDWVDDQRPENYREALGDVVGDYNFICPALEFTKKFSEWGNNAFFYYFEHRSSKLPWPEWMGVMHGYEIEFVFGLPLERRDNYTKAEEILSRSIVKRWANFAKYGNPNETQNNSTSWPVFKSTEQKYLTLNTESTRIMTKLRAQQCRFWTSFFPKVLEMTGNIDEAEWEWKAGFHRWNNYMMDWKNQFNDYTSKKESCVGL
Description: To assess ChEs inhibition, Ellman’s colorimetric method was followed. […] After incubation, the substrate solution (acetylthiocholine or butyrylthiocholine iodide, Sigma-Aldrich, at 1.5 mM) was added, and absorbance was recorded at 405 nm every minute for 10 min. […] Enzyme kinetics were evaluated with varying substrate and inhibitor concentrations, and the results were plotted as Lineweaver–Burk plots using GraphPad Prism software. The inhibition constant (Ki) was estimated from the intersection on the x-axis in secondary plots.

[10] = system: GNS179 patient-derived GSCs; assay: MTT cell viability, GNS179; type: cell-based
Description: as §1

GNS179 cells = assay: Immunofluorescence proliferation / apoptosis, GNS179; type: cell-based; settings: dose-dependent
Description: as §3

[11] = system: U87-MG subcutaneous tumors; assay: In vivo carcinogenesis assay, monotherapy, subcutaneous U87-MG tumors; set-up: species or system mice
Description: (§4) Subcutaneous tumor growth was initiated by injecting 5 × 10^5 cells into both hind flanks of athymic nude-Foxn1^nu mice. Once the tumors reached 25–50 mm^3, mice were allocated to treatment groups by gender and tumor size. For monotherapy, mice were treated intratumorally with vehicle (DMSO dilution) or 200 µM of MTP150 or intraperitoneally with 15 mg/kg, on a 5-days-on, 2-days-off schedule. In combination therapy, 0.5 mg/Kg TMZ or vehicle was administered intraperitoneally during the first 5 days; intratumoral MTP150 or vehicle was delivered with the same schedule. After 4 weeks, mice were sacrificed and tumors were extracted.

U251-MG cells [12] = assay: MTT cell viability, U251-MG; type: cell-based
Description: as §1

subcutaneous tumors = assay: In vivo carcinogenesis assay, combination with TMZ; set-up: species or system mice
Description: as §4

GNS166 cells [13] = assay: Western blot of acetylated α-tubulin and acetylated H3, GNS166; type: cell-based; settings: increasing concentrations
Description: as §2

HDAC1 = system: HDAC1; set-up: method as in PMID 40109740; settings: read-out: HDAC inhibitory activity HDAC1 (IC50); cited from earlier work
HDAC6 = system: HDAC6; set-up: method as in PMID 40109740; settings: read-out: HDAC inhibitory activity HDAC6 (IC50); cited from earlier work
[14] = intraperitoneal treatment, immunohistochemistry at end-point
[15] = intratumoral, immunohistochemistry at end-point

O=C(/C=C/c1cccc(S(=O)(=O)Nc2ccccc2)c1)NO [Belinostat]
cell cycle alterations (GNS166 cells [1]): accumulation of cells in the subG0 phase

COc1ccc2c(ccn2S(=O)(=O)c2cccc(/C=C/C(=O)NO)c2)c1 [MTP142]
IC50 (H1299 lung cancer cells): 5640 nM | IC50 (U87-MG cells [2]): 3.22 µM | IC50 [3]: 3270 nM | IC50 [4]: 970 nM | IC50 [5]: 9780 nM

O=C(/C=C/c1cccc(S(=O)(=O)n2ccc3cc(OCCCN4CCCCC4)ccc32)c1)NO [MTP150]
animal body weight compared to controls (In vivo toxicity assay; 5-days-on 2-days-off, 4 weeks): did not produce any significant changes in animal body weight | macroscopic analysis of post-mortem tissues (In vivo toxicity assay; end-point): did not show clear differences | IC50 (recombinant hMAO-B): 1.5 µM | IC50 (H1299 lung cancer cells): 700 nM | IC50 [6]: 100 to 700 nM | levels of acetylated α-tubulin and acetylated H3 (U87-MG cells [7]): highest levels of acetylated proteins; also recorded: higher levels of acetylated α-tubulin and H3 than both Belinostat and SAHA | apoptosis (Caspase 3-positive cells) (U251-MG cells [8]): increased | proliferation (p-H3- and Ki67-positive cells) (U251-MG cells [8]): reduced | IC50 (U87-MG cells [2]): 0.55 µM | IC50 [3]: 200 nM | cell cycle alterations (GNS166 cells [1]): accumulation of cells in the subG0 phase | IC50 [4]: 100 nM | IC50 [5]: 5720 nM | viability at 72 h [9]: 37% | IC50 (BChE): 8090 nM | Ki (BChE): 2510 nM | BChE inhibition mechanism (BChE; Lineweaver–Burk plot): mixed inhibition mechanism | inhibition at 10 µM (BChE; read-out: BChE inhibition): 60% | IC50 [10]: 6.03 µM and 6 µM | apoptosis (Caspase 3-positive cells) (GNS179 cells): increased | proliferation (p-H3- and Ki67-positive cells) (GNS179 cells): reduced | oncospheres generated by cells dissociated from treated tumors ([11]; 10 days in the absence of treatment): significantly fewer oncospheres | average tumor volume ([11]; intraperitoneal treatment, U87-MG subcutaneous tumors): ~ 270 mm^3 | acetyl-α-tubulin and acetyl H3 staining in tumors [11, 14]: promotes an increase in both | cleaved Caspase 3 staining in tumors [11, 14]: increase in apoptosis | average tumor volume ([11]; intratumoral 200 µM): ~ 480 mm^3 | reduction in final tumor volume vs control ([11]; intratumoral 200 µM): ~ 50% | tumor weight, lower mass than controls ([11]; intratumoral 200 µM, end-point day 39): > 40% | PCNA positive cells in resected tumors [11, 15]: fewer PCNA positive cells | cleaved Caspase 3 in resected tumors [11, 15]: increased cleaved Caspase 3 | tumor inhibition compared with Belinostat ([11]; relative tumor inhibition): more intense tumor inhibition | IC50 (U251-MG cells [12]; Homo sapiens, U-251, MTT): 1.02 µM | IC50 (U251-MG cells [12]; MTT): 1 µM | antitumor activity compared with Belinostat (subcutaneous tumors; monotherapy and combination with TMZ): greater antitumor activity | levels of acetylated α-tubulin and acetylated H3 (GNS166 cells [13]): higher levels of acetylated α-tubulin and H3 than both Belinostat and SAHA

O=C(/C=C/c1cccc(S(=O)(=O)n2ccc3cc(OCc4ccccc4)ccc32)c1)NO [MTP156]
IC50 (H1299 lung cancer cells): 6630 nM | IC50 (U87-MG cells [2]): 3.13 µM | IC50 [3]: 5740 nM | cell cycle alterations (GNS166 cells [1]): accumulation of cells in the subG0 phase | IC50 [4]: 1170 nM | IC50 [5]: 7690 nM | IC50 (HDAC1): 210 nM | IC50 (HDAC6): 330 nM

Cn1nnc2c(C(N)=O)ncn2c1=O [TMZ, temozolomide, reference compound]
average tumor volume (subcutaneous tumors; TMZ 0.5 mg/Kg i.p. first 5 days, intratumoral MTP150 or vehicle): ~ 580 mm^3
